Here are results for two compounds from US20090082437A1, “Use of Oxaliplatin for Enhancing Radiosensitivity in Radiotherapy of Cervical Cancer” (MACKAY MEMORIAL HOSPITAL, priority 2007, published 2009).

In test [1] the test system is HPV 18 positive adenocarcinoma cell (HeLa). The following applies: cited from earlier work.
In test [2] the test system is pATM, pChk1, pChk2, Rad51 in HeLa cells. Description: Western blot of DNA damage repair molecules. It counts as cell-based, human. The following applies: oxaliplatin 5 μM 2 h plus radiation 2 Gy. As to the method:
For western blot analysis, HeLa cells were cultured with various treatments: untreated (control), oxaliplatin 5 μM for 2 h (oxaliplatin), radiation 2 Gy (RT alone) and oxaliplatin plus radiation (oxaliplatin+RT) for further 1 h and 6 h. Then, the cellular proteins were extracted, quantified and subjected to gel electrophoresis using 10% (wt/vol) SDS-polyacrylamide gels. Protein samples were then blotted onto polyvinylidene difluoride (PVDF) membranes (Bio-Rad, Hercules, Calif.). The membranes were probed with diluted primary antibodies and detected using horseradish peroxidase-conjugated anti-mouse IgG followed by the use of enhanced chemiluminescence kits (Amersham Pharmacia Biotech). Anti-actin antibody was used as an internal control.

In test [3] the test system is HeLa (HPV 18+) cells. The experiment in a line: MTT cell viability assay. It counts as cell-based, human. The following applies: 24 hours' exposure, MTT after 2 days in fresh medium. The text has this:
(§1) An ideal radiosensitizer means it enhances radiosensitivity at non-toxic dose, but not due to the combined toxicity of drug and radiation. Thus to determine the toxic effect of different oxaliplatin concentrations on human cervical cancer cells by using 3-(4,5-dimethylthiazol-2-yl)-2, S-diphenyl tetrazolium bromide (MTT) assay. This assay is commonly used to determine cell proliferation, percent of viable cells, and cytotoxicity. MTT is a yellow dye, which can be absorbed by the living cells and be reduced to purplish blue formazan crystals by succinate tetrazolium reductase in mitochondria. Formazan formation can therefore be used to assess and determine the survival rate of cells.
(§2) In preliminary work, the human cervical cancer cell lines HeLa (HPV 18+) and SiHa (HPV 16+) were obtained from American Type Culture Collection (Manassas, Va.). […]
(§3) The human cervical cancer cell lines HeLa (HPV 18+) and SiHa (HPV 16+) were separately cultivated in media containing various doses (0˜10 μM) of oxaliplatin for 24 hours. […] For the assay, the cells were incubated with the MTT (tetrazolium compounds) for 4 h, lysed with DMSO, and the color crystals were solubilized with an ELISA reader at a wavelength of 570 nm.
A general note: Tetrazolium assays rely on reduction of a dye to a coloured formazan, in cell work by metabolically active cells.

Test [4] deals with SiHa (HPV 16+) cells. The experiment in a line: MTT cell viability assay. Type of test: cell-based, human. The following applies: 24 hours' exposure, MTT after 2 days in fresh medium.
Excerpt: as §1, §2, §3

In test [5] the test system is HeLa cells. Description: Cell morphology (Wright's staining), mitotic catastrophe. It counts as cell-based, human. Here is the method:
After seeding for 24 h, HeLa cells were treated with various conditions including untreated control, oxaliplatin 5 μM for 2 h, radiation 2 Gy, and oxaliplatin 5 μM for 2 h followed by washing out and radiation 2 Gy. After these treatments, cell were cultured for further 24 h and then collected for Wright's staining and observation under a light microscope.

Test [6] has as its system gamma-H2AX in HeLa cells. Description: Immunofluorescent staining of gamma-H2AX. It counts as cell-based, human. The following applies: oxaliplatin 5 μM 2 h plus 2 Gy, 15 min after radiation. As to the method:
Immunofluorescent staining was used to determine radiation-induced expression of gamma-H2AX which is an indicator of DNA double-strand break. For immunofluorescent staining of gamma-H2AX, HeLa cervical cancer cells that were untreated (control), treated with oxaliplatin 5 μM for 2 h, irradiation of 2 Gy, and oxaliplatin plus irradiation, cells were harvested 15 min after radiation, stained with Rhodamine-conjugated gamma-H2AX antibody (red) and counterstained with DAPI (blue), respectively.

Test [7] relates to HeLa cells. The experiment in a line: Colony formation assay after oxaliplatin pretreatment and irradiation (radiation survival). It counts as cell-based, human. Here is the method:
(§4) To evaluate whether oxaliplatin treatment influenced the radiosensitivity of cervical cancer cells, this experiment treated HeLa and SiHa cells with oxaliplatin at various concentrations for 2 h prior to radiation survival assays in the invention.
(§5) Based on the above results of cell viability assessment, 0˜10 μM oxaliplatin was used to test for radiation sensitization. HeLa and SiHa were pretreated with various doses (0, 1.25, 5, and 10 μM) of oxaliplatin for 2 h, and the oxaliplatin was washed out before radiation delivery. Irradiation was performed with 6 MeV of electron beam by a linear accelerator (Clinac® 1800, Varian Associates, Inc.) with various doses (0.5, 1, 2 and 3 Gy) at a dose rate of 2.4 Gy/min in a single fraction. Full electron equilibrium was ensured for each fraction by a parallel plate PR-60C ionization chamber (CAPINTEL, Inc., Ramsey, N.J.). Following radiation, a colony formation assay was performed. The ionizing radition of the present invention used include, but not limited to, electron beam radition, photon, electron, gamma, alpha, beta, neutron, and proton radiation. Among them, electron beam radition is preferred.
(§6) Viable tumor cells (10^3) were plated onto culture dishes (35 mm^2) and allowed to grow in McCoy's 5A medium containing 20% heat-inactivated FCS and 0.24% agarose at 37° C. in a humidified 5% CO2 incubator. After 10 to 14 days, the resultant colonies were stained with 0.4% crystal violet and the colonies containing at least 50 cells were determined. The surviving fraction was calculated as the mean colonies/(cells inoculated×plating efficiency). The control plating efficiency for HeLa and SiHa cells was 40-60%. Survival curves were fitted by a linear-quadratic model. The sensitizer enhancement ratio (SER) was calculated as the radiation dose needed for radiation alone divided by the dose needed for oxaliplatin plus radiation to yield a surviving fraction of 37% (Do in radiobiology).
(§7) Statistical analysis was performed by analysis of variance when comparing the colony formation between different treatment conditions. All data were presented as mean ±standard error of the mean (SEM). SPSS 10.0 software (SPSS Inc, Chicago) was used for analysis of all the data. Statistical significance was assumed where the p value was less than 0.05.

Test [8] has as its system SiHa cells. The test is described as above. It counts as cell-based, human. As to the method: as §4, §5, §6, §7
The test system of test [9] is HeLa cells. Description: Cell cycle distribution by propidium iodide staining and flow cytometry. It counts as cell-based, human. Here is the method: To eliminate the potential contribution of cell cycle redistribution to the observed radiosensitization, flow cytometric analysis was performed to determine cell cycle progression after treatment of oxaliplatin. After treating cervical cancer cell line HeLa with 5 μM oxaliplatin for 2 h or 24 h after radiaton, drugs was washed out and cells were cultured for further 24 h. HeLa cells were harvested and fixed with 70% ethanol at 4° C. for 1 h. The cells were stained for 30 min with propidium iodide solution (containing propidium iodide, 0.5 mg/mL; RNAse, 0.1 mg/mL) from a CycleTEST PLUS DNA reagent kit (Becton Dickinson, Lincoln Park, N.J.). Analysis of the DNA content was performed using a FACScaliber flow cytometer (Becton Dickinson). The data from 10^4 cells were collected and analyzed using ModFit software (Becton Dickinson).
A general note: Flow cytometry measures light scatter and fluorescence of single cells or particles in a stream.

Setting [10] is: oxaliplatin 5 μM 2 h, versus untreated.

Consider `N.N.[Cl][Pt][Cl]` [cisplatin], for which, in [1], the “effect of combination with radiation” value is “no effect”.
In the case of `O=C1[O][Pt]2([NH][C@@H]3CCCC[C@H]3[NH]2)[O]C1=O` [oxaliplatin], in test [2], the “Chk1 phosphorylation in irradiated cells” value is “no effect”, the “expression of rad51 in irradiated cells” value is “no effect”, the “radiation-augmented phosphorylation of Chk2” value was “reduced” and the “radiation-induced expression of phosphorylated ATM” value is “markedly reduced”. Further, in test [3], the “highest non-toxic (cell viability>90%) dose” value came out at 5 µM. Further, in test [4], the “highest non-toxic (cell viability>90%) dose” value came to 10 µM. For the same compound, the “percentages of apoptosis and necrosis” value in test [5] (between all groups) is recorded as “no marked changes”. Also, the “percentage cells with mitotic catastrophe” value in test [5] (oxaliplatin 5 μM 2 h alone, untreated control 5.6±1.3%) is given as 27.3±2.2%. Further, in [5] (oxaliplatin 5 μM 2 h followed by radiation 2 Gy, radiation alone 16.7±3.2%), the “percentage cells with mitotic catastrophe” value came to 38.5±3.8%. Moreover, the “radiation-induced early expression of gamma-H2AX” value in [6] is recorded as “reduced”. Also, the “sensitizer enhancement ratio (SER) at 37% survival” value in test [7] (HeLa, oxaliplatin 5 μM for 2 h before radiation) was found to be 1.7. Moreover, the “sensitizer enhancement ratio (SER) at 37% survival” value in test [7] (HeLa, oxaliplatin 10 μM for 2 h before radiation (maximal SER)) was 3.4. In addition, the “survival of irradiated tumor cells compared to radiation only” value in test [7] (HeLa, pretreatment at 5 and 10 μM, radiation 0.5-3 Gy) is reported as “markedly decreased”. Further, the “enhancement of radiation efficiency versus radiation alone” value in [7] (cervical cancer cell lines (HeLa and SiHa)) was 3.1-3.9 times. Further, the “maximal sensitizer enhancement ratio (SER) at 37% survival” value in test [8] (oxaliplatin 2 h before radiation) turned out to be 4.8. Further, the “survival of irradiated tumor cells compared to radiation only” value in test [8] (pretreatment at 5 and 10 μM, radiation 0.5-3 Gy) is “markedly decreased”. For the same compound, in test [9] (setting [10]), the “proportion in the G0/G1 phase” value is “decreased” and the “proportion of cells in the S phase” value is reported as “remained unchanged”. The “percentage of cells at G2/M phase” value in test [9] (oxaliplatin 5 μM plus irradiation, irradiation alone 26.2%±3.7) is reported as 32.3%±3.5.
